Patent US10919891B2, “Heterocyclic compound” (TAKEDA PHARMACEUTICAL COMPANY LIMITED, priority 2017, dated 2021)

What was measured:
CYP3A = test: CYP Induction (CYP3A activity in cryopreserved hepatocytes, P450-Glo CYP3A4 assay); format: in vitro ADME; conditions: % of positive control (inducibility by 10 μmol/L rifampicin = 100%); hepatocytes treated 3 days
Procedure: Cryopreserved hepatocytes were thawed in a culture medium (In VitroGRO™ CP Medium, Celsis In Vitro Technologies, U.S.A.), and the resultant was added to BioCoat™ Matrigel® Matrix Thin-Layer 96 well (Becton, Dickinson and Company, U.S.A.) at a concentration of 40,000 cells/well. After culturing for 24 hours, the culture medium was removed, and replaced with an incubation medium (In VitroGRO™, HI Medium with Torpedo Antibiotic Mix, Celsis In Vitro Technologies, U.S.A.). Cells were cultured for an additional 3 days. The medium was removed on day 4, and the remained cells were treated in the induction medium containing a test compound for 3 days in the presence or absence of 10 μmol/L rifampicin. The induction medium was replaced every day. The test compound addition wells in the presence of 10 μmol/L rifampicin were used to evaluate the inhibitory effect of the test compound on the inducibility of the CYP3A activity by rifampicin. The CYP3A activity was evaluated by measuring luciferin generating amount after the addition of 2 μmol/L luciferin-IPA using IPA P450-Glo™ CYP3A4 assay systems (Promega Corporation, U.S.A.). All cultures were carried out under a humidified environment at 37° C., 5% CO2. The inducibility by rifampicin was defines as 100%, and the inducibility of the test compound (% of positive control) was calculated from the following equation: [(luciferin fluorescence intensity in the absence of rifampicin and the presence of test compound)−(luciferin fluorescence intensity in the absence of rifampicin and test compound)/(luciferin fluorescence intensity in the presence of rifampicin and the absence of test compound)−(Luciferin fluorescence intensity in the absence of rifampicin and test compound)]×100.

CYP3A4 = biological target: T1, CYP3A4 (Homo sapiens, UniProt P08684); test: CYP3A4 TDI (human liver microsomes, testosterone 6β-hydroxylation); format: in vitro ADME; conditions: test compound 30 μM, 60 min vs 0 min preincubation with NADPH, 37° C.
T1 construct: Human liver microsomes purchased from XenoTech, LLC (Lenexa, Kans.) was used; tissue XenoTech, LLC; host or cells: human liver microsomes
Procedure: Human liver microsomes purchased from XenoTech, LLC (Lenexa, Kans.) was used. Test compounds were dissolved in acetonitrile, acetonitrile/methanol (1:1, v/v) or DMSO/acetonitrile (1:4, v/v). To a human liver microsomes solution adjusted with phosphate buffer (pH 7.4), the test compound solution was added to obtain a human liver microsomes reaction solution having the test compound concentration of 30 μM. To the human liver microsome reaction solution, NADPH production system was added, and the mixture was preincubated at 37° C. for 0 minutes or 60 minutes. After the preincubation, probe substrate testosterone was added, and testosterone metabolite 6β-hydroxytestosterone was analyzed by LC/MS/MS to evaluate CYP3A4 enzymatic activity.
The enzyme activity (% of control) at each preincubation point was calculated from the following equation: % of control=[(activity of test compound addition group)/(activity of test compound non-addition group)]×100.
The remaining activity (% remaining) after 60 minutes of preincubation was calculated from the following equation: Remaining activity (%)=[activity after 60 minutes (% of control60 min)]/[activity after 0 minutes (% of control0 min)]×100.

human CaSR = biological target: T2, human CaSR (Homo sapiens, UniProt P41180); test: Human CaSR Antagonist Activity (CHO cells, NFAT-Luciferase reporter); format: cell-based; conditions: CHO, 2 h, 3.3 μm test compound; CaCl2 final 1.3 mM; 100% = reference carboxamide at 10 μM; read-out: Inhibition rate (%) at 3.3 μm
T2 construct: expressed in transfected cells; host or cells: CHO cells
T2 sequence (P41180 20-1078): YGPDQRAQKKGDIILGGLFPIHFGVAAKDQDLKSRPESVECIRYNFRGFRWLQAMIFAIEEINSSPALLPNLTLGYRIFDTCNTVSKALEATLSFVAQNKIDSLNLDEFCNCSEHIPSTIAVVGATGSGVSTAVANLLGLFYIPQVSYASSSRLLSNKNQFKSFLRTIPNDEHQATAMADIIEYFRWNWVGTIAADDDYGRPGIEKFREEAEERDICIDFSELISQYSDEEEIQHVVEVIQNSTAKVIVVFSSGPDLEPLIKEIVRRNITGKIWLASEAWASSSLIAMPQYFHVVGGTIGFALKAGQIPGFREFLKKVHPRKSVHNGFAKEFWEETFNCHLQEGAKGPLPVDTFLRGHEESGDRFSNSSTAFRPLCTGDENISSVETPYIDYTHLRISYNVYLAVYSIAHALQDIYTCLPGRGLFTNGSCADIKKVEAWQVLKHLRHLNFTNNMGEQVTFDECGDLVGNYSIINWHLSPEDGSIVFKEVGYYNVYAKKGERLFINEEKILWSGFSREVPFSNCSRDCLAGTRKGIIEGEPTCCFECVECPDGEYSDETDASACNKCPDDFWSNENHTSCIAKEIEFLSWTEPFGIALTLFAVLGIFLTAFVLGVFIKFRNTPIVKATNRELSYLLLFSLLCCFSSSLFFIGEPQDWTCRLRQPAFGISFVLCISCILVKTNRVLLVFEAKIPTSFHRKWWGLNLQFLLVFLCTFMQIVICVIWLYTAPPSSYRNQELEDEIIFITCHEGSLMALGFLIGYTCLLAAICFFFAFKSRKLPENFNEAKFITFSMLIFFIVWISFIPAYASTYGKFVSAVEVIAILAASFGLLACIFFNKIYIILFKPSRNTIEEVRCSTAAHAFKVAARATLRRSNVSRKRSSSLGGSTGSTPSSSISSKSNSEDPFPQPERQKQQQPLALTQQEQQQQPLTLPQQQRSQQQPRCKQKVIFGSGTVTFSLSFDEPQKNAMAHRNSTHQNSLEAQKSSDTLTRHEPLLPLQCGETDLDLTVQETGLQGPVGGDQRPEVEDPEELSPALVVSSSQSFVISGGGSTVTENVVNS
Procedure: CaSR antagonist activity measurement was performed using Bright-Glo Luciferase assay system (Promega Corporation). CHO cells in which human CaSR and NFAT-Luciferase reporter gene were forcibly expressed were suspended in MEM alpha (Wako Pure Chemical Industries, Ltd.) containing 10% dialyzed serum (HyClone). The cells in suspension was seeded in 384-well white plate (Corning) at 10,000/20 μL/well, and cultured in an incubator of 37° C., 5% CO2 for one day. A diluent of Test compound was prepared with assay buffer (MEM alpha containing 10 mM HEPES (Life Technologies) and 10% dialysis serum). The diluent was added to the plate at 5 μL/well and allowed to stand at 37° C. for 10 minutes. Further, a diluent of 7.8 mM CaCl2 prepared with assay buffer (final concentration 1.3 mM) was added at 5 μl/well and allowed to stand in an incubator of 37° C., 5% CO2 for 2 hours. Bright-Glo reagents (Promega Corporation) were added at 10 μL/well, and the obtained mixture was stirred for 5 minutes, and then luminescence intensity was measured using Multi-label reader Envision (PerkinElmer, Inc.). The activity (%) of the test compound was calculated with the definitions in which the luminescence intensity when DMSO is added in place of the test compound is defined as 0% inhibition; and the luminescence intensity when (5R)—N-(1-ethyl-1-(4-ethylphenyl)propyl)-2,7,7-trimethyl-5-phenyl-4,5,6,7-tetrahydropyrazolo[1,5-a]Pyrimidine-3-carboxamide at final concentration of 10 μM is added is defined as 100% inhibition.

[1] = test system: aortic banding (TAC) models; conditions: cited from earlier work
[2] = dosing after cardiac loading; cited from earlier work
[3] = test system: monocrotaline (MCT)-induced pulmonary hypertension rats; conditions: cited from earlier work
[4] = test system: hypoxia-induced pulmonary hypertension (HPH) mice; conditions: cited from earlier work

T1 sequence (P08684 whole entry): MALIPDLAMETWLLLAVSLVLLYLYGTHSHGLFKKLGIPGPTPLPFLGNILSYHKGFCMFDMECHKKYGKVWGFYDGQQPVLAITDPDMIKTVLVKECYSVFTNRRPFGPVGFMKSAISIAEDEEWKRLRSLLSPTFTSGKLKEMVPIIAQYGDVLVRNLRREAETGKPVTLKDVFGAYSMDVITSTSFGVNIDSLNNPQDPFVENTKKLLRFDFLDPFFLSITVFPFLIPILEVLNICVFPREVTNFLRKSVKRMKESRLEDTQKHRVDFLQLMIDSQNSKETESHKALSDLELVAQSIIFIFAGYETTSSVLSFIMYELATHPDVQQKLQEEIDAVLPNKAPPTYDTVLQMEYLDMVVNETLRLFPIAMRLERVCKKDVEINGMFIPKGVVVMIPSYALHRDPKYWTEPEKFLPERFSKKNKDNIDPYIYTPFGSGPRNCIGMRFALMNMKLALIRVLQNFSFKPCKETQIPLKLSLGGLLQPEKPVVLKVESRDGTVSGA

Row | SMILES | Inducibility (%) (CYP3A) | Remaining Activity (%) (CYP3A4) | inhibition at 3.3 µM (human CaSR) | cardiac hypertrophy [1] | cardiac hypofunction [2] | cardiac hypertrophy, elevated right ventricular systolic pressure, fibrosis of cardiac muscle tissue, pulmonary vascular remodeling [3] | cardiac hypertrophy, elevated right ventricular systolic pressure, fibrosis of cardiac muscle tissue, pulmonary vascular remodeling [4]
1 | CC1(C)C[C@H](c2ccccc2)Nc2c(C(=O)N3CC4CC4(c4cc(Cl)cc(Cl)c4)C3)cnn21 (single isomer, unassigned) [Example 4] | 10.7% | 87.0% | 100% |  |  |  | 
2 | C[C@@H](N[C@H]1CCCC[C@@H]1NC(=O)c1ccc(Cl)cc1)c1cccc2ccccc12 [Calhex231] |  |  |  | improves cardiac hypertrophy | fails to improve cardiac hypofunction |  | 
3 | CC1(C)C[C@H](c2ccccc2)Nc2c(C(=O)N3CC4CC4(c4ccc(C(F)(F)F)cc4)C3)cnn21 (single isomer, unassigned) [Example 7] | 2.3% | 78.1% | 97% |  |  |  | 
4 | CC(C)(Cc1ccc2ccccc2c1)NC[C@@H](O)COc1cccc(Cl)c1C#N [NPS-2143] |  |  |  |  |  | suppressed | suppressed
5 | CC1(C)C[C@H](c2ccccc2)Nc2c(C(=O)N3C[C@H]4C[C@@]4(c4ccc(Cl)c(Cl)c4)C3)cnn21 [Example 2, ((1R,5S)-1-(3,4-Dichlorophenyl)-3-azabicyclo[3.1.0]hex-3-yl)((5R)-7,7-dimethyl-5-phenyl-4,5,6,7-tetrahydropyrazolo[1,5-a]pyrimidin-3-yl)methanone] |  |  | 92% |  |  |  | 

Second part, led by results:

Row | Inducibility (%) (CYP3A) | Remaining Activity (%) (CYP3A4) | inhibition at 3.3 µM (human CaSR) | SMILES | cardiac hypertrophy [1] | cardiac hypofunction [2] | cardiac hypertrophy, elevated right ventricular systolic pressure, fibrosis of cardiac muscle tissue, pulmonary vascular remodeling [3] | cardiac hypertrophy, elevated right ventricular systolic pressure, fibrosis of cardiac muscle tissue, pulmonary vascular remodeling [4]
6 | 1.2% | 97.7% | 99% | CC1(C)C[C@H](c2ccccc2)Nc2c(C(=O)N3CC4CC4(c4ccc(C(F)(F)F)c(Cl)c4)C3)cnn21 (single isomer, unassigned) [Example 11] |  |  |  | 
7 | 16.7% | 81.8% | 101% | CC1(C)C[C@H](c2ccccc2)Nc2c(C(=O)N3CC4CC4(c4ccc(Cl)c(C(F)(F)F)c4)C3)cnn21 (single isomer, unassigned) [Example 13] |  |  |  | 
8 | 9.0% | 86.4% | 96% | CC1(C)C[C@H](c2ccccc2)Nc2c(C(=O)N3CC4CC4(c4cc(Cl)cc(C(F)(F)F)c4)C3)cnn21 (single isomer, unassigned) [Example 9] |  |  |  | 
